According to patent US4097595A, “7-Amino-thiazolyl acetamido cephalosporanic acids” (Roussel Uclaf, priority 1976, dated 1978):
Converted amounts (≈) assume the structure as drawn. Read-outs that look alike come from different tables or passages of the source.

What was measured:
Format in all cases: cell-based
[1] = system: Staphylococcus aureus UC 1 061 (penicillin sensible); experiment: MIC, dilution method in liquid media, Staphylococcus aureus UC 1061, penicillin sensible; conditions: penicillin sensible
Description: (§1) A series of tubes were prepared with the same quantity of sterile nutrive media and increasing quantities of the test product was distributed to each tube. Then, each tube was seeded with a bacterial strain and after incubation at 37° C for 24 or 48 hours, the inhibition of the growth was determined by transillumination which permitted determination of the minimum inhibitory concentrations (M.I.C.) in μg/ml.

[2] = system: Staphylococcus aureus UC 1128 (penicillin resistant); experiment: MIC, dilution method in liquid media, Staphylococcus aureus UC 1128, penicillin resistant
Description: as §1

[3] = system: Streptococcus faecalis 5 432; experiment: MIC, dilution method in liquid media, Streptococcus faecalis 5 432; conditions: read-out: MIC
Description: as §1

[4] = system: Escherichia Coli UC 1 020; experiment: MIC, dilution method in liquid media, Escherichia Coli UC 1 020; conditions: read-out: MIC
Description: as §1

[5] = system: Escherichia Coli UC 1 261; experiment: MIC, dilution method in liquid media, Escherichia Coli UC 1 261; conditions: read-out: MIC
Description: as §1

[6] = system: Klebsiella pneumoniae 52 145; experiment: MIC, dilution method in liquid media, Klebsiella pneumoniae 52 145
Description: as §1

[7] = system: Proteus mirabilis (indol); experiment: MIC, dilution method in liquid media, Proteus mirabilis (indol)
Description: as §1

[8] = system: Staphylococcus aureus 54 146; experiment: MIC, dilution method in liquid media, Staphylococcus aureus 54 146
Description: as §1

[9] = system: Escherichia Coli (T) 0 26 B 6; experiment: MIC, dilution method in liquid media, Escherichia Coli (T) 026 B6
Description: as §1

[10] = system: Streptococcus pyogenes A 561; experiment: MIC, dilution method in liquid media, Streptococcus pyogenes A 561
Description: as §1

[11] = system: Escherichia Coli R 55 123 D; experiment: MIC, dilution method in liquid media, Escherichia Coli R 55 123 D; conditions: COLIR55123D, read-out: MIC
Description: as §1

Salmonella Typhimurium = experiment: MIC, dilution method in liquid media, Salmonella Typhimurium; conditions: Salmonella enterica, strain 420 (Tables II, IV)
Description: as §1

[12] = system: Bacillus subtilis ATCC 6 633; experiment: MIC, dilution method in liquid media, Bacillus subtilis ATCC 6 633
Description: as §1

[13] = system: Staphylococcus aureus ATCC 6 538; experiment: MIC, dilution method in liquid media, Staphylococcus aureus ATCC 6 538
Description: as §1

[14] = system: Streptococcus faecalis 99 F 74; experiment: MIC, dilution method in liquid media, Streptococcus faecalis 99 F 74; conditions: Enterococcus faecalis
Description: as §1

Serratia RG 2 532 = experiment: MIC, dilution method in liquid media, Serratia RG 2 532
Description: as §1

[15] = Staphylococcus aureus, 54146, 24 h, read-out: MIC

| SMILES | MIC ([1]; UC1, 24 H) [µg/mL] | MIC ([1]; UC1, 48 H) [µg/mL] | MIC ([2]; UC1128, 24 H) [µg/mL] | MIC ([2]; UC1128, 48 H) [µg/mL] | MIC ([4]; UC1, 24 h) [µg/mL] | MIC ([4]; UC1, 48 h) [µg/mL] | MIC ([5]; UC1, 24 h) [µg/mL] | MIC ([5]; UC1, 48 h) [µg/mL] | MIC ([7]; 24 H, A 235, read-out: MIC) [µg/mL] | MIC [8, 15] [µg/mL] | MIC ([9]; 24 h) [µg/mL] | MIC ([9]; 48 h) [µg/mL] | MIC ([10]; A561, 24 h) [µg/mL] | MIC ([10]; A561, 48 h) [µg/mL] | MIC (Salmonella Typhimurium; 24 H) [µg/mL] | MIC ([12]; ATCC6, 24 h) [µg/mL] | MIC ([12]; ATCC6, 48 h) [µg/mL] | MIC ([13]; ATCC6, 24 h, read-out: MIC) [µg/mL] | also measured |
| --- | --- | --- | --- | --- | --- | --- | --- | --- | --- | --- | --- | --- | --- | --- | --- | --- | --- | --- | --- |
| Nc1nc(CC(=O)NC2C(=O)N3C(C(=O)O)=C(CSC(=O)c4ccco4)CS[C@H]23)cs1 (stereo partly shown) [Example 5, 7-[2-(2-amino-4-thiazolyl)-acetamido]-3-[{(2-furyl)-carbonyl}thiomethyl]-ceph-3-eme-4-carboxylic acid] | 0.5 (≈ 1.04 µM) | 1 (≈ 2.08 µM) | 1 (≈ 2.08 µM) | 2 (≈ 4.16 µM) | 10 (≈ 20.8 µM) | 10 (≈ 20.8 µM) | 2 (≈ 4.16 µM) | 2 (≈ 4.16 µM) | 2 (≈ 4.16 µM) | 1 (≈ 2.08 µM) | 10 (≈ 20.8 µM) | 10 (≈ 20.8 µM) | 0.1 (≈ 0.208 µM) | 0.1 (≈ 0.208 µM) | 10 (≈ 20.8 µM) | 0.2 (≈ 0.416 µM) | 0.2 (≈ 0.416 µM) | 0.5 (≈ 1.04 µM) | MIC ([3]; Enterococcus faecalis, 5432, 24 h): 5 µg/mL (≈ 10.4 µM); MIC ([3]; Enterococcus faecalis, 5432, 48 h): 40 µg/mL (≈ 83.2 µM); MIC ([6]; Klebsiella pneumoniae, 52145, 24 h): 0.4 µg/mL (≈ 0.832 µM); MIC ([6]; Klebsiella pneumoniae, 52145, 48 h, read-out: MIC): 1 µg/mL (≈ 2.08 µM); MIC ([7]; 48 H, A 235, read-out: MIC): 2 µg/mL (≈ 4.16 µM); MIC ([8]; Staphylococcus aureus, 54146, 48 h, read-out: MIC): 1 µg/mL (≈ 2.08 µM); MIC ([11]; 24 h): 10 µg/mL (≈ 20.8 µM); MIC ([11]; 48 h): 10 µg/mL (≈ 20.8 µM); MIC ([13]; ATCC6, 48 h, read-out: MIC): 1 µg/mL (≈ 2.08 µM) |
| CCC(=O)SCC1=C(C(=O)O)N2C(=O)C(NC(=O)Cc3csc(N)n3)[C@H]2SC1 (stereo partly shown) [Example 6, 7-[2-(2-amino-4-thiazolyl)-acetamido]-3-propionylthiomethyl-ceph-3-eme-4-carboxylic acid] | 0.6 (≈ 1.36 µM) | 0.6 (≈ 1.36 µM) | 1 (≈ 2.26 µM) | 1 (≈ 2.26 µM) | 10 (≈ 22.6 µM) | 10 (≈ 22.6 µM) | 10 (≈ 22.6 µM) | 10 (≈ 22.6 µM) | 10 (≈ 22.6 µM) | 1 (≈ 2.26 µM) | 40 (≈ 90.4 µM) | 40 (≈ 90.4 µM) | 0.2 (≈ 0.452 µM) | 0.2 (≈ 0.452 µM) | 5 (≈ 11.3 µM) | 0.1 (≈ 0.226 µM) | 0.1 (≈ 0.226 µM) | 0.2 (≈ 0.452 µM) | MIC ([6]; Klebsiella pneumoniae, 52145, 24 h, read-out: MIC): 3 µg/mL (≈ 6.78 µM); MIC ([6]; Klebsiella pneumoniae, 52145, 48 h): 5 µg/mL (≈ 11.3 µM); MIC ([7]; 48 h): 20 µg/mL (≈ 45.2 µM); MIC ([8]; Staphylococcus aureus, 54146, 48 h): 2 µg/mL (≈ 4.52 µM); MIC (Salmonella Typhimurium; 48 H): 5 µg/mL (≈ 11.3 µM); MIC ([13]; ATCC6, 48 h): 0.4 µg/mL (≈ 0.904 µM); MIC ([14]; 99F74, 24 h): 20 µg/mL (≈ 45.2 µM); MIC ([14]; 99F74, 48 h, read-out: MIC): 40 µg/mL (≈ 90.4 µM); MIC (Serratia RG 2 532; RG2532, 24 h): 10 µg/mL (≈ 22.6 µM); MIC (Serratia RG 2 532; RG2532, 48 h): 10 µg/mL (≈ 22.6 µM) |
